The structures appear in SMILES notation.

By IC50 is commonly meant the concentration at which inhibition is half-maximal.

This test deals with secretion of ApoB by HepG2 cells. The test is described as follows: ApoB secretion inhibition assay in HepG2 cells (ApoB ELISA). The conditions noted are these: Homo sapiens, HepG2, Table 6, assay of Example 2; read-out: IC50 ApoB Assay. Type of test: cell-based, human. The protocol: The ability of the compounds of the present invention to inhibit the secretion of ApoB can be determined using the following cell-based assay, which measures the secretion of ApoB by HepG2 cells. ApoB has two possible metabolic fates: entrance into the lipoprotein assembly pathway within the lumen of the endoplasmic reticulum (ER), or degradation in the cytoplasm by the ubiquitin-dependent proteasome. The destiny of ApoB is determined by the relative availability of individual lipids, which is controlled by MTP (Davis, Biochim. Biophys. Acta, 1999, 1440, 1-31).
HepG2 cells (ATCC, HB-8065) are seeded in 96-well plates in DMEM with 10% FBS+pen/strep at a density of 1×10^5 cells/well (100 μl /well). Twenty-four hours after seeding, the plate is aspirated and the media changed to DMEM with 1% BSA and pen/strep, and the cells are serum-starved for 24 hours. After 24 hour serum-starvation, the plate is aspirated again and the cells are then treated for 24 hours with or without compound in DMEM with 1% BSA, 0.3 mM OA (OA complexed to BSA at a 2:1 ratio) and pen/strep. The final concentration of DMSO in the assay (from compound and control) is 0.1%. After 24 hour treatment, conditioned media is collected in an empty 96-well plate.
Cellular viability is measured using the cell permeable dye, AlamarBlue™. This dye undergoes electron reduction in viable cells but not dead cells. The reduced dye product gives a fluorescent signal which can be monitored with a fluorescence plate reader (excitation 545 nm and emission 575 nm). The amount of fluorescence generated in a given well is proportional to the number of viable cells. After collection, the 96-well plate is re-fed with 100 μl media (DMEM with 10% FBS) and 10 μl Alamar Blue™ per well, incubated for 2 hours and then read in a fluorescence plate reader.
ApoB secretion from HepG2 cells is quantitated by testing the conditioned media at […] using an ApoB ELISA kit (ALerCHEK) according to the manufacturer's instructions. The ELISA assay for ApoB is performed as follows: a polyclonal antibody against human ApoB (Chemicon) is diluted 1:1000 in carbonate-bicarbonate buffer and 100 μl are added to each well of a 96-well plate (NUNC). After 5 hours incubation at room temperature, the antibody solution is removed and wells are washed four times with PBS/0.05% TweenD 20 (Cayman Chemical Co.). Non-specific sites on the plastic plate are blocked by incubating wells for 1 to 1.5 hours in a solution of 0.5% BSA and 0.1% TweenD 20 made in PBS. One hundred microliters of a 1:20 dilution of growth medium from the HepG2 cells (made in 0.004% TweenD 20/1% BSA in PBS) is added to each well and incubated for 3 hours at room temperature. Wells are aspirated and washed four times (0.05% TweenD 20 in PBS) prior to adding 100 μl of a 1:1000 dilution (5 μg/ml) of the secondary antibody, mouse anti-human ApoB (Chemicon). After 2 hours incubation at room temperature, this solution is aspirated and the wells are again washed 4 times as above. One hundred microliters of peroxidase-conjugated affinity purified goat anti-mouse IgG (H+L) (Jackson ImmunoResearch Laboratories) (1:10,000 dilution in PBS/1% BSA/0.1% TweenD 20) is then added to each well and incubated for 1 hour at room temperature. After aspirating, the wells are washed 4 times as above and 50 μl of 1-step Ultra TMB ELISA reagent (Pierce) is added to each well and incubated for 5 minutes. The reaction is stopped by the addition of 50 μl of 2 NH2SO4 and absorbance of each well is read at 450 nm.
(In an ELISA, binding on a coated surface is turned into a signal by an enzyme label.)

`CC(C)(C)c1ccc(-c2ccccc2C(=O)Nc2ccc3nc(C(=O)N[C@H](C(=O)NCc4ccccc4)c4ccccc4)sc3c2)cc1` [Compound 6]: the IC50 was 4 nM.
Next, `CCCCCNC(=O)[C@@H](NC(=O)c1cccc(-c2csc(NC(=O)c3ccccc3-c3ccc(C(C)(C)C)cc3)n2)c1)c1ccccc1` [Compound 11]: 296 nM; `CN(Cc1ccc(F)cc1)C(=O)[C@@H](NC(=O)c1cccc(-c2csc(NC(=O)c3ccccc3-c3ccc(C(C)(C)C)cc3)n2)c1)c1ccccc1` [Compound 13]: 238 nM; `CCCCCNC(=O)[C@@H](NC(=O)c1ccccc1-c1csc(NC(=O)c2ccccc2-c2ccc(C(C)(C)C)cc2)n1)c1ccccc1` [Compound 15]: more than 10000 nM.
Consider `CC(C)(C)c1ccc(-c2ccccc2C(=O)Nc2nc(-c3ccccc3C(=O)N[C@H](C(=O)N3CCCC3)c3ccccc3)cs2)cc1` [Compound 16, (S)-4′-tert-butyl-N-(4-(2-(2-oxo-1-phenyl-2-(pyrrolidin-1-yl)ethylcarbamoyl)phenyl)thiazol-2-yl)biphenyl-2-carboxamide], for which the IC50 turned out to be 1100 nM.
`CN(Cc1ccc(F)cc1)C(=O)[C@@H](NC(=O)c1ccccc1-c1csc(NC(=O)c2ccccc2-c2ccc(C(C)(C)C)cc2)n1)c1ccccc1` [Compound 17]: the concentration for half-maximal inhibition (IC50) was more than 10000 nM.
Next, `CC(C)(C)c1ccc(-c2ccccc2C(=O)Nc2ccc3nc(C(=O)O)sc3c2)cc1` [Compound 18]: 2700 nM; `CN(Cc1ccc(F)cc1)C(=O)[C@@H](NC(=O)c1nc2ccc(N)cc2s1)c1ccccc1` [Compound 19]: more than 10000 nM; `CC(C)(C)c1ccc(-c2ccccc2C(=O)NCC23CCC(C(=O)N[C@H](C(=O)N4CCCC4)c4ccccc4)(CC2)CC3)cc1` [Compound 20]: 95 nM.
In the case of `CC(C)(C)c1ccc(-c2ccccc2C(=O)NCC23CCC(C(=O)N[C@H](C(=O)N4CCC(F)(F)C4)c4ccccc4)(CC2)CC3)cc1` [Compound 21] it was 190 nM; in that of `CC(C)(C)c1ccc(-c2ccccc2C(=O)NCC23CCC(C(=O)N[C@H](C(=O)N4Cc5ccccc5C4)c4ccccc4)(CC2)CC3)cc1` [Compound 22], 253 nM; in that of `CC(C)(C)c1ccc(-c2ccccc2C(=O)Nc2ccc3nc(C(=O)N[C@H](C(=O)N4Cc5ccccc5C4)c4ccccc4)sc3c2)cc1` [Compound 23], 21.6 nM.
Turning to `Cc1noc(-c2ccccc2C(=O)Nc2ccc3nc(C(=O)N[C@H](C(=O)N(C)Cc4ccc(F)cc4)c4ccccc4)sc3c2)n1` [Compound 25], the IC50 came out at 59.4 nM.
Next, `CC(C)(C)c1ccc(-c2ccccc2C(=O)Nc2nc(-c3cccc(C(=O)N[C@H](C(=O)N4CCC(F)(F)C4)c4ccccc4)c3)cs2)cc1` [Compound 26]: 77.2 nM; `CC(C)(C)c1ccc(-c2ccccc2C(=O)Nc2nc(-c3cccc(C(=O)N[C@H](C(=O)N4Cc5ccccc5C4)c4ccccc4)c3)cs2)cc1` [Compound 27]: 318 nM; `CN(Cc1ccc(F)cc1)C(=O)[C@@H](NC(=O)c1nc2ccc(NC(=O)c3ccccc3-c3cccnc3)cc2s1)c1ccccc1` [Compound 28]: 158 nM.
In the case of `CN(Cc1ccc(F)cc1)C(=O)[C@@H](NC(=O)c1nc2ccc(NC(=O)c3ccccc3-n3cnnn3)cc2s1)c1ccccc1` [Compound 29] it was 4200 nM; in that of `CN(Cc1ccc(F)cc1)C(=O)[C@@H](NC(=O)c1nc2ccc(NC(=O)c3ccccc3-n3cccn3)cc2s1)c1ccccc1` [Compound 31], 93.1 nM.
In the case of `CC(C)(C)c1ccc(-c2ccccc2C(=O)Nc2ccc3nc(C(=O)N[C@@H](C(=O)N4CCCC4)c4ccccc4)sc3c2)cc1` [Compound 34] it was 34.8 nM; in that of `CN(Cc1ccc(F)cc1)C(=O)[C@H](NC(=O)c1nc2ccc(NC(=O)c3ccccc3-c3ccc(C(C)(C)C)cc3)cc2s1)c1ccccc1` [Compound 35], 9.8 nM; in that of `CN(Cc1ccc(F)cc1)C(=O)[C@@H](NC(=O)c1ccc(-c2csc(NC(=O)c3ccccc3-c3ccc(C(C)(C)C)cc3)n2)cc1)c1ccccc1` [Compound 37], 35.3 nM.
For `CN(Cc1ccc(F)cc1)C(=O)[C@@H](NC(=O)c1nc2ccc(NC(=O)c3ccccc3-c3nc4ccccc4[nH]3)cc2s1)c1ccccc1` [Compound 39], the concentration for half-maximal inhibition (IC50) worked out at 256 nM.
In the case of `O=C(N[C@H](C(=O)N1CCCC1)c1ccccc1)c1nc2ccc(NC(=O)c3ccccc3-c3cn4ccsc4n3)cc2s1` [Compound 43] it was 105 nM; in that of `O=C(N[C@H](C(=O)N1CCCCC1)c1ccccc1)c1nc2ccc(NC(=O)c3ccccc3-c3cn4ccsc4n3)cc2s1` [Compound 44], 1610 nM.
In the case of `CC(C)(C)c1ccc(-c2ccccc2C(=O)NCC23CCC(C(=O)N[C@H](C(=O)N4CCCCC4)c4ccccc4)(CC2)CC3)cc1` [Compound 45] it was 98.2 nM; in that of `CC(C)(C)c1ccc(-c2ccccc2C(=O)NCC23CCC(C(=O)N[C@H](C(=O)NC4CCCC4)c4ccccc4)(CC2)CC3)cc1` [Compound 46], 151 nM.
Regarding `CN(C(=O)[C@@H](NC(=O)C12CCC(CNC(=O)c3ccccc3-c3ccc(C(C)(C)C)cc3)(CC1)CC2)c1ccccc1)C1CCCC1` [Compound 47], the IC50 was found to be 78.8 nM.
With `CC(C)(C)c1ccc(-c2ccccc2C(=O)NCC23CCC(C(=O)N[C@H](C(=O)NC4CCCCC4)c4ccccc4)(CC2)CC3)cc1` [Compound 48], the IC50 turned out to be 230 nM.
Regarding `CC(C)(C)c1ccc(-c2ccccc2C(=O)NCC23CCC(C(=O)N[C@H](C(=O)NCC4CC4)c4ccccc4)(CC2)CC3)cc1` [Compound 49], the IC50 was 60.3 nM.
As to `CC(C)(C)NC(=O)[C@@H](NC(=O)C12CCC(CNC(=O)c3ccccc3-c3ccc(C(C)(C)C)cc3)(CC1)CC2)c1ccccc1` [Compound 50], the IC50 came out at 165 nM.
Regarding `CN(C(=O)[C@@H](NC(=O)c1nc2ccc(NC(=O)c3ccccc3-c3cn4ccsc4n3)cc2s1)c1ccccc1)C1CCCC1` [Compound 51], the IC50 is 872 nM.
Next, `CC(C)(C)NC(=O)[C@@H](NC(=O)c1nc2ccc(NC(=O)c3ccccc3-c3cn4ccsc4n3)cc2s1)c1ccccc1` [Compound 52]: 248 nM; `CN(C(=O)[C@@H](NC(=O)c1nc2ccc(NC(=O)c3ccccc3-c3cn4ccsc4n3)cc2s1)c1ccccc1)C(C)(C)C` [Compound 53]: 4180 nM.
In the case of `CN(Cc1ccc(F)cc1)C(=O)[C@@H](NC(=O)c1nc(-c2ccc(NC(=O)c3ccccc3-c3ccc(C(C)(C)C)cc3)cc2)cs1)c1ccccc1` [Compound 56, (S)-4-(4-(4′-tert-butylbiphenyl-2-ylcarboxamido)phenyl)-N-(2-((4-fluorobenzyl)(methyl)amino)-2-oxo-1-phenylethyl)thiazole-2-carboxamide] it was 846 nM.
Next, `CC(C)(C)c1ccc(-c2ccccc2C(=O)Nc2ccc(-c3csc(C(=O)N[C@H](C(=O)N4CCCC4)c4ccccc4)n3)cc2)cc1` [Compound 57, (S)-4-(4-(4′-tert-butylbiphenyl-2-ylcarboxamido)phenyl)-N-(2-oxo-1-phenyl-2-(pyrrolidin-1-yl)ethyl)thiazole-2-carboxamide]: 272 nM.
In the case of `CN(C(=O)[C@@H](NC(=O)C12CCC(CNC(=O)c3ccccc3-c3ccc(C(C)(C)C)cc3)(CC1)CC2)c1ccccc1)C1CCCCC1` [Compound 58], the IC50 stood at 300 nM.
In the case of `CN(C(=O)[C@@H](NC(=O)c1nc2ccc(NC(=O)c3ccccc3-c3cn4ccsc4n3)cc2s1)c1ccccc1)C1CCCCC1` [Compound 61] it was 2100 nM.
In the case of `O=C(N[C@H](C(=O)NCC1CC1)c1ccccc1)c1nc2ccc(NC(=O)c3ccccc3-c3cn4ccsc4n3)cc2s1` [Compound 62] it was 286 nM; in that of `O=C(N[C@H](C(=O)NC1CCCCC1)c1ccccc1)c1nc2ccc(NC(=O)c3ccccc3-c3cn4ccsc4n3)cc2s1` [Compound 63], 82 nM.

The values are drawn from patent publication US20080249130A1, “Gut microsomal triglyceride transport protein inhibitors” (Sirtris Pharmaceuticals, Inc., priority 2007, published 2008).
